# Results published in patent US20240300900A1, “HYDROPHILIC AZADIBENZOCYCLOOCTYNE DERIVATIVES AND METAL-FREE CLICK REACTIONS WITH THESE HYDROPHILIC AZADIBENZOCYCLOOCTYNE DERIVATIVES” (Roche Diagnostics Operations, Inc., priority 2021, published 2024).
# Columns and labels:
# [1] = Solubility experiments: successive mixing with water, visual inspection; type: physicochemical; settings: sonicated 10 s
# Description: If solid compound was still visible, this was considered as not dissolved. If no solid compound was visible, this was considered as dissolved.
# [2] = Hydrophobicity indicated by reverse phase HPLC (YMC-Triart C18); type: physicochemical; settings: YMC-Triart C18, 0-100% MeCN in H2O, 0.1% TFA in 25 min; later retention = more hydrophobic
# Description: The other way round, an earlier retention corresponded to higher hydrophilie.
# [3] = theoretical concentration 0.6 mM
# [4] = theoretical concentration 6.0 mM
# [5] = theoretical concentration 12.4 mM
# [6] = theoretical concentration 16.5 mM
# [7] = theoretical concentration 515 mM
Compound,"dissolved in water (visual inspection) [1, 3]","dissolved in water (visual inspection) [1, 4]","dissolved in water (visual inspection) [1, 5]","dissolved in water (visual inspection) [1, 6]","dissolved in water (visual inspection) [1, 7]",Retention Time [2] [min]
O=C(CCCC(=O)N1Cc2cc(OC[C@@H](O)CO)ccc2C#Cc2ccc(OC[C@@H](O)CO)cc21)NCCCC(=O)ON1C(=O)CCC1=O [Compound 8],yes,yes,yes,no,no,–
O=C(CCC(=O)N1Cc2ccccc2C#Cc2ccccc21)ON1C(=O)CCC1=O [Compound 32],no,no,no,no,no,–
O=C(O)CCCNC(=O)CCCC(=O)N1Cc2cc(OC[C@@H](O)CO)ccc2C#Cc2ccc(OC[C@@H](O)CO)cc21 [Compound 7],–,–,–,–,–,11.58
O=C(O)CCCCC(=O)N1Cc2ccccc2C#Cc2ccccc21 [Compound 31],no,no,no,no,no,15.18
